Assay results published in patent publication US5124339A, “Agents for potentiating the effects of antitumor agents and combating multiple drug resistance” (Burroughs Wellcome Company, priority 1989, dated 1992).
Structures can show the parent of a compound that is named as a salt. *1 amine or outer side, *2 acyl side, *3 side chain or, on linkers, in order; H or OH if unused. Where a SMILES comes first, the peptide text is derived from it. Bridges are numbered along the chain shown (N, C = ends). Roman numbers before positions name the chains, in order. [ ]: non-standard residue; d: D form. Actinocin(9to1) = Cc1c2oc3c(C)ccc(C(=O)[*:1])c3nc-2c(C(=O)[*:2])c(N)c1=O; NMeV = CN[C@H](C(=O)O)C(C)C; Sar = CNCC(=O)O

Key:
[1] = In vitro cytotoxicity of potentiating agents, MTT absorbance (wildtype KB); conditions: human, kb 3-1 cells
Method: (§1) After 48 hours of incubation at 37° C., the media is changed and cells are treated with actinomycin D at 0.1 nM (3-1) or 20 nM (V-1). The test potentiating agent is introduced to one-half the untreated cultures and one-half the Act D treated cultures at 1 and 10 μM. After 96 hours of additional incubation at 37° C., 0.5 mg/ml MTT dye is added, the cells are incubated for three hours, after which the cells are dissolved in DMSO, and the absorbance is then read at 570 nm.

[2] = system: Wildtype KB 3-1 human KB epidermoid carcinoma cells; experiment: as above; conditions: KB 3-1, 96 h, Act D alone = 1.00
Method: as §1

[3] = In vitro cytotoxicity of potentiating agents, MTT absorbance (wildtype CHO); conditions: chinese hamster, auxb1 cells
[4] = system: Wildtype AUXB1 Chinese hamster ovary cells; experiment: as above; conditions: AUXB1, 96 h, Act D alone = 1.00
[5] = In vitro cytotoxicity of potentiating agents, MTT absorbance (drug resistant KB); conditions: human, kb v-1 cells
Method: as §1

[6] = system: Drug Resistant KB V-1 human KB epidermoid carcinoma cells; experiment: as above; conditions: KB V-1, 96 h, Act D alone = 1.00
Method: as §1

[7] = In vitro cytotoxicity of potentiating agents, MTT absorbance (drug resistant CHO); conditions: chinese hamster, c5s32 cells
[8] = system: Drug Resistant C5S32 Chinese hamster ovary cells; experiment: as above; conditions: for Normalized absorbance (surviving cells), potentiating agent + ACT D, fraction of Act D alone: C5S32, 96 h, Act D alone = 1.00
[9] = system: Chinese hamster ovary cells (AuxBl and C5S32); experiment: Reduction in cell number by Act D alone, MTT absorbance; conditions: Cricetulus griseus, CHO, read-out: reduction in cell number below the value of completely untreated cultures
[10] = system: resistant sublines of murine leukemia cells; conditions: Tsuruo et al., Cancer Res.; cited from earlier work

Question: Which results are given for `COc1ccc(CN(CCN(C)C)c2cccc(/C=C/C(=O)O)n2)cc1` [(A), (E)-3-(6-(N-(2-Dimethylaminoethyl)-4-methoxybenzyl-amino)-2-pyridyl)acrylic acid]?
Answer: viability at 96 h, 1 µM [1]: 100%; viability at 96 h, 10 µM [1]: 99%; Normalized absorbance (surviving cells), potentiating agent + ACT D, fraction of Act D alone ([2]; 1 μM + Act D 0.1 nM): 0.96; Normalized absorbance (surviving cells), potentiating agent + ACT D, fraction of Act D alone ([2]; 10 μM + Act D 0.1 nM): 0.97; viability at 96 h, 1 µM [3]: 100%; viability at 96 h, 10 µM [3]: 41%; Normalized absorbance (surviving cells), potentiating agent + ACT D, fraction of Act D alone ([4]; 1 μM + Act D 0.01 μM): 0.64; Normalized absorbance (surviving cells), potentiating agent + ACT D, fraction of Act D alone ([4]; 10 μM + Act D 0.01 μM): 0.05; viability at 96 h, 1 µM [5]: 70%; viability at 96 h, 10 µM [5]: 73%; Normalized absorbance (surviving cells), potentiating agent + ACT D, fraction of Act D alone ([6]; 1 μM + Act D 20 nM): 0.85; Normalized absorbance (surviving cells), potentiating agent + ACT D, fraction of Act D alone ([6]; 10 μM + Act D 20 nM): 0.80; viability at 96 h, 1 µM [7]: 68%; viability at 96 h, 10 µM [7]: 28%; Normalized absorbance (surviving cells), potentiating agent + ACT D, fraction of Act D alone ([8]; 1 μM + Act D 0.5 μM): 1.00; Normalized absorbance (surviving cells), potentiating agent + ACT D, fraction of Act D alone ([8]; 10 μM + Act D 0.5 μM): 0.13

Question: With `COc1ccc(CN(CCN(C)C)c2ccc(Br)cn2)cc1` [(B), N-(5-Bromo-2-pyridyl)-N-(4-methoxybenzyl)-N',N'-dimethyl-1,2-ethanediaminehydrobromide] as the compound, how does the viability at 96 h, 1 µM [1] read?
Answer: The viability at 96 h, 1 µM was 97%.

Question: What about the viability at 96 h, 10 µM [1] of the same compound?
Answer: The viability at 96 h, 10 µM was 86%.

Question: And the “Normalized absorbance (surviving cells), potentiating agent + ACT D, fraction of Act D alone” value (from here on “Normalized absorbance … fraction of Act D alone”) ([2]; 1 μM + Act D 0.1 nM)?
Answer: Its value is 0.89.

Question: What about the “Normalized absorbance … fraction of Act D alone” value ([2]; 10 μM + Act D 0.1 nM) of the same compound?
Answer: Its value is 0.92.

Question: And the viability at 96 h, 1 µM [3]?
Answer: The viability at 96 h, 1 µM was 100%.

Question: What about the viability at 96 h, 10 µM [3] of the same compound?
Answer: Its viability at 96 h, 10 µM is 100%.

Question: What about the “Normalized absorbance … fraction of Act D alone” value ([4]; 1 μM + Act D 0.01 μM) of the same compound?
Answer: The value was 1.00.

Question: And the “Normalized absorbance … fraction of Act D alone” value ([4]; 10 μM + Act D 0.01 μM)?
Answer: Its value is 1.00.

Question: And the viability at 96 h, 1 µM [5]?
Answer: The viability at 96 h, 1 µM was 77%.

Question: What about the viability at 96 h, 10 µM [5] of the same compound?
Answer: Its viability at 96 h, 10 µM is 56%.

Question: What about the “Normalized absorbance … fraction of Act D alone” value ([6]; 1 μM + Act D 20 nM) of the same compound?
Answer: Its value is 0.85.

Question: What about the “Normalized absorbance … fraction of Act D alone” value ([6]; 10 μM + Act D 20 nM) of the same compound?
Answer: The value was 0.80.

Question: And the viability at 96 h, 1 µM [7]?
Answer: Its viability at 96 h, 1 µM is 100%.

Question: And the viability at 96 h, 10 µM [7]?
Answer: Its viability at 96 h, 10 µM is 91%.

Question: And the “Normalized absorbance … fraction of Act D alone” value ([8]; 1 μM + Act D 0.5 μM)?
Answer: The value was 1.00.

Question: What about the “Normalized absorbance … fraction of Act D alone” value ([8]; 10 μM + Act D 0.5 μM) of the same compound?
Answer: Its value is 0.56.

Question: What does the source list for `Cc1c2oc3c(C)ccc(C(=O)N[C@@H]4C(=O)N[C@H](C(C)C)C(=O)N5CCC[C@H]5C(=O)N(C)CC(=O)N(C)[C@@H](C(C)C)C(=O)O[C@@H]4C)c3nc-2c(C(=O)N[C@@H]2C(=O)N[C@H](C(C)C)C(=O)N3CCC[C@H]3C(=O)N(C)CC(=O)N(C)[C@@H](C(C)C)C(=O)O[C@@H]2C)c(N)c1=O` [Actinomycin D, reference compound] (I: T[dV]P[Sar][NMeV] / II: T[dV]P[Sar][NMeV]; ester I:1-I:C, II:1-II:C; linker I:N-II:N via Actinocin(9to1))?
Answer: inhibition at 0.01 µM [9]: 10 to 20%; resistance of C5S32 cells to Actinomycin D compared to the parental AuxBI cell line ([8]; C5S32 vs parental AuxBI): about 200 fold

Question: For `COc1ccc(CCN(C)CCCC(C#N)(c2ccc(OC)c(OC)c2)C(C)C)cc1OC` (centres unmarked) [Verapamil], which “enhance the activity of antitumor agents against resistant sublines of murine leukemia cells” value (“enhance the activity of antitumor agents” below) [10] is on record?
Answer: The value was “enhance the activity of antitumor agents against resistant sublines of murine leukemia cells”.

Question: For `CCN(CC)CCn1c(=O)c(Cc2ccc(OC)cc2)nc2ccccc21` [caroverine], which “enhance the activity of antitumor agents” value [10] is on record?
Answer: The value was “enhance the activity of antitumor agents against resistant sublines of murine leukemia cells”.

Question: Which “enhance the activity of antitumor agents” value [10] does the source give for `CN(C)CCCN1c2ccccc2CCc2ccc(Cl)cc21` [clomipramine] here?
Answer: The value was “enhance the activity of antitumor agents against resistant sublines of murine leukemia cells”.

Question: Which “enhance the activity of antitumor agents” value [10] does the source give for `COc1ccc([C@@H]2Sc3ccccc3N(CCN(C)C)C(=O)[C@@H]2OC(C)=O)cc1` [diltiazem] here?
Answer: Its value is “enhance the activity of antitumor agents against resistant sublines of murine leukemia cells”.

Question: Which “enhance the activity of antitumor agents” value [10] does the source give for `COC(=O)C1=C(C)NC(C)=C(C(=O)OCCN(C)Cc2ccccc2)C1c1cccc([N+](=O)[O-])c1` (centres unmarked) [nicardipine] here?
Answer: The value was “enhance the activity of antitumor agents against resistant sublines of murine leukemia cells”.

Question: Which “enhance the activity of antitumor agents” value [10] does the source give for `C=C[C@H]1C[N@@]2CC[C@H]1C[C@@H]2[C@@H](O)c1ccnc2ccc(OC)cc12` [quinidine] here?
Answer: Its value is “enhance the activity of antitumor agents against resistant sublines of murine leukemia cells”.

Question: For `CN1CCN(CCCN2c3ccccc3Sc3ccc(C(F)(F)F)cc32)CC1` [trifluoperazine], which “enhance the activity of antitumor agents” value [10] is on record?
Answer: Its value is “enhance the activity of antitumor agents against resistant sublines of murine leukemia cells”.
